Experimental data from PMC6204527, “The Human Gut Colonizer Blastocystis Respires Using Complex II and Alternative Oxidase to Buffer Transient Oxygen Fluctuations in the Gut” (Frontiers in Cellular and Infection Microbiology, 2018).

What was measured:
[1] = molecular target: T1, Blastocystis alternative oxidase (AOX) (Blastocystis hominis, UniProt D3GDI7); assay: O2 uptake, Clark electrode, E. coli FN102 membranes; type: biochemical; conditions: 1 mM duroquinol; O2 co-substrate (250 μM); 50 mM Tris-HCl pH 7.5; 25 °C
T1 construct: full-length 304 aa (predicted 35 kDa), N-terminal 6xHis from pET-14b, expressed in heme-deficient E. coli FN102; E. coli membranes or whole cells
T1 sequence (D3GDI7 1-304): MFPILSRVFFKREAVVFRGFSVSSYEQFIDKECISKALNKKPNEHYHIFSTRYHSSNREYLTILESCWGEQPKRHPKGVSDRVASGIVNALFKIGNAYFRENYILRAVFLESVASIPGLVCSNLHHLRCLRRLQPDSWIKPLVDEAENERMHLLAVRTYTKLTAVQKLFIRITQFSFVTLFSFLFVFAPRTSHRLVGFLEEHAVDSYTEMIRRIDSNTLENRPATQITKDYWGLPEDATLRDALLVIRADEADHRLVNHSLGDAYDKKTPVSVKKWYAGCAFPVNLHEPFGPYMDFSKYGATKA

[2] = molecular target: T1, Blastocystis alternative oxidase (AOX); assay: as above; type: biochemical; conditions: 1 mM duroquinol; 50 mM Tris-HCl pH 7.5; 25 °C; antimycin A 1 μM also added

| Compound | O2 uptake, Clark electrode, E. coli FN102 membranes [1] | inhibition at 25 μM [2] |
| --- | --- | --- |
| Cc1c(C)c(O)c(C)c(C)c1O [DQH2, duroquinol] | Addition of duroquinol (Sigma), an AOX substrate, initiates oxygen consumption | – |
| CCCCCCCCOC(=O)c1cc(O)c(O)c(O)c1 [OG, octylgallate] | – | Oxygen consumption is almost completely abated by the addition of octylgallate, an AOX inhibitor |
